The text below walks through data of PubChem BioAssay (NCI).

Test in all cases: NCI anticancer screen, dose series, 48 h
For test [1], the system named is SNB-19 CNS.
Test [2] deals with SK-MEL-2 melanoma.
Test [3] concerns RPMI-8226 leukemia.
Test [4] deals with UO-31 renal.
In test [5] the test system is T-47D breast.
Test [6] relates to K-562 leukemia.
For test [7], the system named is DU-145 prostate.
The subject of test [8] is LOX IMVI melanoma.

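The compound was tested at five concentrations on cells cultured in 96-well plates, with a 48-hour exposure period. GI50 is the concentration that inhibits growth by half. TGI marks complete inhibition of growth.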 Bounds are passed on as bounds.

With `Cc1csc(Nc2nc(-c3cccc(Cl)c3)nc(C(Cl)(Cl)Cl)n2)n1`, the GI50 in test [1] was 3.27 µM; in test [2], 25.8 µM; in test [3], 1.22 µM; in test [4] it was 2.38 µM; in test [5], 1.04 µM; in test [6], 7.41 µM. The GI50 in test [7] was 0.713 µM. Besides, the TGI is greater than 33.3 µM in test [1]; greater than 33.3 µM in test [2]; greater than 33.3 µM in test [3]; 15.7 µM in test [4]; 8.54 µM in test [5]; greater than 33.3 µM in test [6]. The same compound yielded a TGI in test [7] of 2.01 µM.

With `CCCCCCCCCCCCCCCCCC1=NC(C)(C)CN1CCO`, the GI50 was 1.66 µM in test [1]; 1.97 µM in test [2]; 1.54 µM in test [8]; 1.57 µM in test [4]; 2.24 µM in test [5]; 1.53 µM in test [6]. In test [7], the GI50 is 1.81 µM. Also, the TGI in test [1] was 3.28 µM; in test [2], 3.63 µM; in test [8], 2.87 µM; in test [4], 3.05 µM; in test [5], 5.61 µM; in test [6], 3.35 µM. In test [7], this compound yielded a TGI of 3.27 µM.

For the compound `COc1ccc(-n2nc(C)c3c2N(C)C2(C)C[C@@H]4C3(C)[C@@H]3CC4(C2)N(C)c2c(c(C)nn2-c2ccc(OC)cc2)[C@H]3C)cc1` (some centres undefined), the GI50 in test [1] is 4.45 µM; in test [2] it was 7.29 µM; in test [5], 2.44 µM; in test [7], 23 µM. Besides, the TGI is 86.3 µM in test [1], 23.3 µM in test [2], 81.9 µM in test [5] and greater than 100 µM in test [7].

Regarding `CN1C(=O)C23CC4=CC=CC(O)C4N2C(=O)C1(CO)SS3` (centres undefined), the TGI turned out to be 0.55 µM in test [1]; 0.617 µM in test [2]; 0.492 µM in test [8]; 0.591 µM in test [3]; 2.03 µM in test [4]; 0.339 µM in test [5]. In test [7], this compound came in with a TGI of 0.318 µM.

For `COc1ccc(S(=O)(=O)NCCNc2nccc(-c3c(-c4ccccc4)nc4sccn34)n2)cc1`, the GI50 was 8.78 µM in test [1]; 4.98 µM in test [2]; 3.94 µM in test [8]; 0.706 µM in test [4]; 3.17 µM in test [5]; 3.37 µM in test [7]. For the same compound, the TGI in test [1], in test [2], in test [8], in test [4], in test [5] and in test [7] was greater than 100 µM each time.

Turning to `COC(=O)C1=C(O)C(C(=O)OC)[C@@]2(O)[C@@H](C(=O)OC)C(c3ccc(OC(=O)C(CC(C)C)NC(C)=O)cc3)C[C@@H]1[C@@H]2C(=O)OC` (some centres undefined), the GI50 in test [1] was 37.1 µM; in test [2], 81.9 µM; in test [8], 20.6 µM; in test [3], greater than 100 µM; in test [4] it was greater than 100 µM; in test [5], 37.8 µM. Further, in test [6], the GI50 is 95 µM. Further, the TGI in test [1] is greater than 100 µM; in test [2], greater than 100 µM; in test [8], 45 µM; in test [3], greater than 100 µM; in test [4] it was greater than 100 µM; in test [5] it was greater than 100 µM. In test [6], this compound had a TGI greater than 100 µM.

As to `CCCCCCN1C(=O)CN=C1Nc1ccc2cc3ccc(NC4=NCC(=O)N4CCCCCC)cc3nc2c1`, the GI50 in test [1] was 2.07 µM; in test [2] it was 2.79 µM; in test [3], 2.07 µM; in test [4], 1.24 µM; in test [5] it was 1.71 µM; in test [6], 1.91 µM. Further, the GI50 in test [7] is 1.94 µM. Besides, the TGI was determined as 4.67 µM in test [1]; 8.45 µM in test [2]; 5.52 µM in test [3]; 2.54 µM in test [4]; 4.97 µM in test [5]; 4.93 µM in test [6]. In addition, the TGI in test [7] was determined as 4.21 µM.

`O=c1c2cc(F)ccc2sc2c(NCCCN3CCCC3)nc3ccccc3c12`: the GI50 in test [1] was 1.7 µM; in test [2] it was 2.19 µM; in test [8], 1.73 µM; in test [4] it was 1.59 µM; in test [5] it was 3.89 µM; in test [6], 2.06 µM. Further, the GI50 in test [7] is 2.07 µM. Besides, the TGI in test [1] came out at 3.53 µM; in test [2], 4.77 µM; in test [8], 3.28 µM; in test [4], 4.18 µM; in test [5] it was 23.8 µM; in test [6], 4.86 µM. Also, in test [7], the TGI stood at 3.94 µM.

Turning to `Cn1c(COC(=O)NCCN2CCOCC2)nc2c(N3CCOCC3)nc(-c3ccccc3)nc21`, the GI50 in test [1] is 1.57 µM; in test [2] it was 1.65 µM; in test [8], 0.256 µM; in test [4], 0.838 µM; in test [6], 0.523 µM; in test [7], 1.25 µM. In addition, the TGI in test [1] was 3.31 µM; in test [2] it was 3.2 µM; in test [8], 1.1 µM; in test [4] it was 2.18 µM; in test [6] it was greater than 100 µM; in test [7], 2.68 µM.
